The values that follow come from patent US20180000725A1, “ORALLY-DISSOLVING FILMS FOR DRUG DELIVERY THROUGH THE ORAL CAVITY” (The Chinese University of Hong Kong, priority 2016, published 2018).

Like-named read-outs stand apart in the source and are kept apart here.

One data set is described as follows: in vivo. The conditions noted are these: New Zealand Albino, rabbit, po, 1.5 mg/kg.
For data set [1] the following is noted: ropinirole, cited from earlier work.
For data set [2] the following is noted: cited from earlier work.
Data set [3] in a line: In vivo pharmacokinetic study of ropinirole / ROP-ODF. The conditions noted are these: New Zealand Albino, rabbit, po, 1.5 mg/kg.
Experimental: New Zealand Albino rabbits (3.0-4.5 kg) were used in this study. The rabbits were kept at a 12/12 hour light/dark cycle with unlimited food and water supply. […] The rabbits were lightly anesthetized by an intramuscular injection of ketamine and xylazine immediately before dosing. In order to compensate for reduced saliva secretion due to anesthesia, the mouths of the rabbits were wetted with a small amount of distilled water (about 1 mL) before sublingual or buccal administration of the orally dissolving films.
Blood samples were collected periodically at pre-determined time points for 6 hours.
The pharmacokinetic studies were conducted by three different routes (i.e. oral, sublingual, and buccal administration), and the data were analyzed non-compartmentally by using WinNonlin (Certara USA, Inc., Princeton, N.J., USA).

By AUC(0-inf) is commonly meant the area under the concentration-time curve extrapolated to infinity. The low end stands for less exposure, the high end for more exposure. As a reminder, the AUC(0-t) is exposure summed from dosing to a finite time, without extrapolation to infinity. The term Cmax denotes the peak of the concentration-time curve. Broadly, the half-life is the time in which the quantity being followed falls by half. A lower half-life goes with fast loss. Broadly, the Tmax is the time from dosing to the highest level. As for `CCCN(CCC)CCc1cccc2c1CC(=O)N2` [ropinirole, Ropinirole], in “in vivo”, the area under the curve AUC(0-inf) is 90.5 ng·h/mL, the AUC(0-t) is 65.5 ng·h/mL, the Cmax amounted to 29.9 ± 16.2 ng/mL and the half-life was found to be 173.6 ± 1.1 min. Also, the time of peak concentration (Tmax) in data set [1] (after oral administration) was roughly 1.5 h. Further, in data set [1] (oral), the “oral dose excreted unchanged” value was 10%. Besides, the “protein binding in the plasma” value in data set [2] is 10-39%. Also, the Tmax in data set [3] was 2.38 h.
